# Source: publication PMC9058255 (RSC Advances, 2020)
# Read-outs that look alike come from different tables or passages of the source.
# Tests used:
# MERS-S pseudovirus = experiment: organism not typed; type: cell-based, MERS-CoV; conditions: for IC50: read-out: IC50: 50% inhibitory concentration
# in vitro = conditions: human
compound,measurement,setting,value
"CN(C)c1ccc2nc(-c3ccc(/N=C/c4ccsc4)cc3)sc2c1 [Compound 4l, (E)-N,N-Dimethyl-2-(4-((thiophen-3-ylmethylene)amino)phenyl)benzo[d]thiazol-6-amine]",IC50,"MERS-S pseudovirus; Huh-7, 48 h",> 10 µM
"CNc1ccc2nc(-c3ccc(/N=C/c4ccsc4)cc3)sc2c1 [Compound 4k, (E)-N-Methyl-2-(4-((thiophen-3-ylmethylene)amino)phenyl)benzo[d]thiazol-6-amine]",IC50,"MERS-S pseudovirus; Huh-7, 48 h",> 10 µM
"C(=N\c1ccc(-c2nc3ncccc3s2)cc1)/c1ccsc1 [Compound 4a, (E)-N-(4-(Thiazolo[4,5-b]pyridin-2-yl)phenyl)-1-(thiophen-3-yl)methanimine]",IC50,"MERS-S pseudovirus; Huh-7, 48 h",> 10 µM
"C(=N\c1ccc(-c2cn3ccccc3n2)cc1)/c1ccsc1 [Compound 4d, (E)-N-(4-(Imidazo[1,2-a]pyridin-2-yl)phenyl)-1-(thiophen-3-yl)methanimine]",IC50,"MERS-S pseudovirus; Huh-7, 48 h",> 10 µM
"Fc1cccc2nc(-c3ccc(/N=C/c4ccsc4)cc3)sc12 [Compound 4e, (E)-N-(4-(7-Fluorobenzo[d]thiazol-2-yl)phenyl)-1-(thiophen-3-yl)methanimine]",IC50,"MERS-S pseudovirus; Huh-7, 48 h",1.67 ± 0.3 µM
"C(=N\c1ccc(Oc2nc3ccccc3s2)cc1)/c1ccsc1 [Compound 4o, (E)-N-(4-(Benzo[d]thiazol-2-yloxy)phenyl)-1-(thiophen-3-yl)methanimine]",inhibitory activity against MERS-S pseudovirus (in words),MERS-S pseudovirus,inhibitory activity was abolished
same,IC50,"MERS-S pseudovirus; Huh-7, 48 h",> 10 µM
"Fc1ccc2sc(-c3ccc(/N=C/c4ccsc4)cc3)nc2c1 [Compound 4g, (E)-N-(4-(5-Fluorobenzo[d]thiazol-2-yl)phenyl)-1-(thiophen-3-yl)methanimine]",IC50,"MERS-S pseudovirus; Huh-7, 48 h",1 ± 0.07 µM
"C(=N\c1ccc(Sc2nc3ccccc3s2)cc1)/c1ccsc1 [Compound 4p, (E)-N-(4-(Benzo[d]thiazol-2-ylthio)phenyl)-1-(thiophen-3-yl)methanimine]",inhibitory activity against MERS-S pseudovirus (in words),MERS-S pseudovirus,inhibitory activity was abolished
same,IC50,"MERS-S pseudovirus; Huh-7, 48 h",> 10 µM
"Fc1cccc2sc(-c3ccc(/N=C/c4ccsc4)cc3)nc12 [Compound 4h, (E)-N-(4-(4-Fluorobenzo[d]thiazol-2-yl)phenyl)-1-(thiophen-3-yl)methanimine]",IC50,"MERS-S pseudovirus; Huh-7, 48 h",0.53 ± 0.02 µM
"C(=N\c1ccc(-c2nc3ccccc3s2)cc1)/c1cc[nH]c1 [Compound 1p, (E)-N-(4-(Benzo[d]thiazol-2-yl)phenyl)-1-(1H-pyrrol-3-yl)methanimine]",CC50,in vitro,> 100 µM
same,IC50,"MERS-S pseudovirus; Huh-7, 48 h",> 10 µM
"Oc1cccc(/C=N/c2ccc(-c3nc4ccccc4s3)cc2)c1O [Compound 1k, (E)-3-(((4-(Benzo[d]thiazol-2-yl)phenyl)imino)methyl)benzene-1,2-diol]",CC50,in vitro,> 100 µM
same,IC50,"MERS-S pseudovirus; Huh-7, 48 h",0.4 ± 0.01 µM
"COc1cccc(/C=N/c2ccc(-c3nc4ccccc4[nH]3)cc2)c1O [Compound 1c, (E)-2-(((4-(1H-Benzo[d]imidazol-2-yl)phenyl)imino)methyl)-6-methoxyphenol]",inhibitory activity against MERS-S pseudovirus (in words),MERS-S pseudovirus,lost inhibitory activity
same,IC50,"MERS-S pseudovirus; Huh-7, 48 h",> 10 µM
"COc1ccc(/C=N/c2ccc(-c3nc4ccccc4s3)cc2)cc1O [Compound 1l, (E)-5-(((4-(Benzo[d]thiazol-2-yl)phenyl)imino)methyl)-2-methoxyphenol]",CC50,in vitro,> 100 µM
same,IC50,"MERS-S pseudovirus; Huh-7, 48 h",0.22 ± 0.03 µM
"CCOc1ccc2nc(-c3ccc(/N=C/c4ccsc4)cc3)sc2c1 [Compound 4i, (E)-N-(4-(6-Ethoxybenzo[d]thiazol-2-yl)phenyl)-1-(thiophen-3-yl)methanimine]",IC50,"MERS-S pseudovirus; Huh-7, 48 h",> 10 µM
"C(=N\c1ccc(-c2nc3ccccc3s2)cc1)/c1ccsc1 [Compound 1o, (E)-N-(4-(Benzo[d]thiazol-2-yl)phenyl)-1-(thiophen-3-yl)methanimine]",CC50,in vitro,> 100 µM
same,IC50,"MERS-S pseudovirus; Huh-7, 48 h",0.14 ± 0.06 µM
"COc1cccc(/C=N/c2ccc(-c3nc4ccccc4s3)nc2)c1O [Compound 1d, (E)-2-(((6-(Benzo[d]thiazol-2-yl)pyridin-3-yl)imino)methyl)-6-methoxyphenol]",inhibitory activity against MERS-S pseudovirus (in words),MERS-S pseudovirus,Modest inhibitory activity
same,IC50,"MERS-S pseudovirus; Huh-7, 48 h",2.7 ± 0.19 µM
"CNC(=O)c1ccc2nc(-c3ccc(/N=C/c4ccsc4)cc3)sc2c1 [Compound 4n, (E)-N-Methyl-2-(4-((thiophen-3-ylmethylene)amino)phenyl)benzo[d]thiazole-6-carboxamide]",IC50,"MERS-S pseudovirus; Huh-7, 48 h",> 10 µM
"C(=N\c1ccc(-c2nc3ccccc3s2)cc1)/c1cncs1 [Compound 1t, (E)-N-(4-(Benzo[d]thiazol-2-yl)phenyl)-1-(thiazol-5-yl)methanimine]",CC50,in vitro,> 100 µM
same,IC50,"MERS-S pseudovirus; Huh-7, 48 h",8.8 ± 0.01 µM
"Fc1ccc2nc(-c3ccc(/N=C/c4ccsc4)cc3)sc2c1 [Compound 4f, (E)-N-(4-(6-Fluorobenzo[d]thiazol-2-yl)phenyl)-1-(thiophen-3-yl)methanimine]",IC50,"MERS-S pseudovirus; Huh-7, 48 h",0.09 ± 0.01 µM
"C(=N\c1ccc(-c2nc3c(s2)CCCC3)cc1)/c1ccsc1 [Compound 4b, (E)-N-(4-(4,5,6,7-Tetrahydrobenzo[d]thiazol-2-yl)phenyl)-1-(thiophen-3-yl) methanimine]",IC50,"MERS-S pseudovirus; Huh-7, 48 h",> 10 µM
"C(=N\c1ccc(-c2nc3ccccc3s2)cc1)/c1cccnc1 [Compound 1m, (E)-N-(4-(Benzo[d]thiazol-2-yl)phenyl)-1-(pyridin-3-yl)methanimine]",CC50,in vitro,> 100 µM
same,IC50,"MERS-S pseudovirus; Huh-7, 48 h",0.34 ± 0.24 µM
"COc1cccc(C(=O)Nc2ccc(-c3nc4ccccc4s3)cc2)c1O [Compound 1g, N-(4-(benzo[d]thiazol-2-yl)phenyl)-2-hydroxy-3-methoxybenzamide]",inhibitory activity against MERS-S pseudovirus (in words),MERS-S pseudovirus,inhibitory activity was markedly reduced
same,IC50,"MERS-S pseudovirus; Huh-7, 48 h",> 10 µM
"Cc1ccc2nc(-c3ccc(/N=C/c4ccsc4)cc3)sc2c1 [Compound 4j, (E)-N-(4-(6-Methylbenzo[d]thiazol-2-yl)phenyl)-1-(thiophen-3-yl)methanimine]",IC50,"MERS-S pseudovirus; Huh-7, 48 h",> 10 µM
"COc1cccc(/C=N/c2ccc(-c3nc4ccccc4o3)cc2)c1O [Compound 1b, (E)-2-(((4-(Benzo[d]oxazol-2-yl)phenyl)imino)methyl)-6-methoxyphenol]",inhibitory activity against MERS-S pseudovirus (in words),MERS-S pseudovirus,lost inhibitory activity
same,IC50,"MERS-S pseudovirus; Huh-7, 48 h",> 10 µM
"C(=N\c1ccc(-c2cn3c(n2)sc2ccccc23)cc1)/c1ccsc1 [Compound 4c, (E)-N-(4-(Benzo[d]imidazo[2,1-b]thiazol-2-yl)phenyl)-1-(thiophen-3-yl) methanimine]",IC50,"MERS-S pseudovirus; Huh-7, 48 h",> 10 µM
"Oc1ccccc1/C=N/c1ccc(-c2nc3ccccc3s2)cc1 [Compound 1i, (E)-2-(((4-(Benzo[d]thiazol-2-yl)phenyl)imino)methyl)phenol]",CC50,in vitro,> 100 µM
same,IC50,"MERS-S pseudovirus; Huh-7, 48 h",0.52 ± 0.03 µM
"C(=N\c1ccc(-c2nc3ccccc3s2)cc1)/c1ccccc1 [Compound 1h, (E)-N-(4-(Benzo[d]thiazol-2-yl)phenyl)-1-phenylmethanimine]",CC50,in vitro,> 100 µM
same,IC50,"MERS-S pseudovirus; Huh-7, 48 h",0.57 ± 0.11 µM
"C(=N\c1ccc(-c2nc3ccccc3s2)cc1)/c1ccoc1 [Compound 1n, (E)-N-(4-(Benzo[d]thiazol-2-yl)phenyl)-1-(furan-3-yl)methanimine]",CC50,in vitro,> 100 µM
same,IC50,"MERS-S pseudovirus; Huh-7, 48 h",> 10 µM
"O=[N+]([O-])c1cc(/C=N/c2ccc(-c3nc4ccccc4s3)cc2)cs1 [Compound 1r, (E)-N-(4-(Benzo[d]thiazol-2-yl)phenyl)-1-(5-nitrothiophen-3-yl)methanimine]",CC50,in vitro,> 100 µM
same,IC50,"MERS-S pseudovirus; Huh-7, 48 h",0.62 ± 0.31 µM
"COc1cccc(/C=N/c2nc3ccccc3s2)c1O [Compound 1e, (E)-2-((benzo[d]thiazol-2-ylimino)methyl)-6-methoxyphenol]",inhibitory activity against MERS-S pseudovirus (in words),MERS-S pseudovirus,lost inhibitory activity
same,IC50,"MERS-S pseudovirus; Huh-7, 48 h",> 10 µM
"C(=N\c1ccc(-c2nc3ccccc3s2)cc1)/c1cccs1 [Compound 1q, (E)-N-(4-(Benzo[d]thiazol-2-yl)phenyl)-1-(thiophen-2-yl)methanimine]",CC50,in vitro,> 100 µM
same,inhibitory activity against MERS-S pseudovirus (in words),MERS-S pseudovirus,modest inhibitory capacity
same,IC50,"MERS-S pseudovirus; Huh-7, 48 h",6.52 ± 1.14 µM
(E)-N-(4-(Benzo[d]thiazol-2-yl)phenyl)-1-(3-methoxyphenyl)methanimine [Compound 1j],CC50,Huh-7 cells,> 100 µM
same,IC50,MERS-S pseudovirus,0.2 ± 0.05 µM
"COc1cccc(/C=N/c2ccc(-c3nc4ccccc4s3)cc2)c1O [Compound 1a, (E)-2-(((4-(Benzo[d]thiazol-2-yl)phenyl)imino)methyl)-6-methoxyphenol]",inhibitory activity against MERS-S pseudovirus (in words),MERS-S pseudovirus,modest entry inhibitor
same,IC50,MERS-S pseudovirus,0.73 ± 0.66 µM
"O=C(O)c1ccc2nc(-c3ccc(/N=C/c4ccsc4)cc3)sc2c1 [Compound 4m, (E)-2-(4-((Thiophen-3-ylmethylene)amino)phenyl)benzo[d]thiazole-6-carboxylic acid]",IC50,"MERS-S pseudovirus; Huh-7, 48 h",> 10 µM
"COc1cccc(CNc2ccc(-c3nc4ccccc4s3)cc2)c1O [Compound 1f, 2-(((4-(benzo[d]thiazol-2-yl)phenyl)amino)methyl)-6-methoxy-phenol]",inhibitory activity against MERS-S pseudovirus (in words),MERS-S pseudovirus,inhibitory activity was markedly reduced
same,IC50,"MERS-S pseudovirus; Huh-7, 48 h",> 10 µM
"C(=N\c1ccc(-c2nc3ccccc3s2)cc1)/c1cscn1 [Compound 1s, (E)-N-(4-(Benzo[d]thiazol-2-yl)phenyl)-1-(thiazol-4-yl)methanimine]",CC50,in vitro,> 100 µM
same,IC50,"MERS-S pseudovirus; Huh-7, 48 h",> 10 µM
"C(=N\c1ccc(-c2nc3ccccc3s2)cc1)/c1nccs1 [Compound 1u, (E)-N-(4-(Benzo[d]thiazol-2-yl)phenyl)-1-(thiazol-2-yl)methanimine]",CC50,in vitro,> 100 µM
same,IC50,"MERS-S pseudovirus; Huh-7, 48 h",> 10 µM
